# Patent US20230381171A1, “AUTOIMMUNE THERAPY” (LDN Pharma Limited, priority 2018, published 2023)
# How the values were obtained:
# Type in all cases: in vivo, human
# [1] = Laboratory hormone levels of supplemented hormones (Example 3)
# Protocol: They were also prescribed Dehydroepiandrosterone (DHEA) 5 mg and Nature Throid thyroid hormone supplement 48.75 mg, progesterone 100 mg every night and testosterone cream 4 mg per day for low libido, and they were taking turmeric and krill oil. They started tapering off the plaquenil.
# During treatment estradiol 1.0 mg was started and also at this point they were off the plaquenil for 3 weeks totally. […] In addition, their Free T3 (triiodothyronine) was 3.1.
# During the treatment regimen, the administered DHEA was increased to 10 mg. The DHEA hormone was measured to be 203, Estradiol 117, progesterone 0.2, T3 3.3.
# The patient's levels are at optimal levels where the T3 is in the upper range.
# [2] = system: Hashimotos Thyroiditis, Fibromyalgia and Eosinophilic Esophaqitis; test: Case report Example 1: patient treated with LDN and Vitamin D; settings: LDN 1.5 to 4.5 mg daily, Vitamin D 5,000 then 7,000 units per day
# Protocol: Patient's symptoms included severe fatigue and muscle aches and pains over their body from the fibromyalgia. They were already taking Vitamin D at a daily dosage of 5,000 units and 130 mg of Nature Throid supplementation (a porcine product). For the first week of LDN treatment, the patient was administered daily dosages of 1.5 mg LDN and the 5,000 units of Vitamin D continued. During the second week, the daily dosage of LDN was increased to 3.0 mg. During the third week, the daily dosage of LDN was increased to 4.5 mg. […] Administration of Vitamin D was increased to 7,000 units per day.
# Her thyroid medication requirements were reduced. Her symptoms of fibromyalgia were resolved after addition of the naltrexone to the regimen.
# [3] = system: Systemic Lupus Erythematosus (SLE) and Sjorgren's Disease; test: Case report Example 3: patient treated with naltrexone and Vitamin D3; settings: plaquenil 200 mg twice a day, before naltrexone
# [4] = SpectraCell test of Vitamin D levels (Example 1); settings: after a month of treatment; Vitamin D 5,000 units daily; 55 is adequate
# From the text: A sufficient amount can be determined by the skilled person by making a routine assessment of certain parameters of the patient to undergo the administration, such as, but not limited to, age, weight, gender, history of illness and/or other lifestyle factors including smoking, alcohol consumption and the level of exercise. Furthermore the skilled person can ascertain whether a dose has been sufficient to raise the vitamin D blood concentration to a sufficient amount by performing routine biochemical and analytical assays on a biological sample obtained from the subject. Preferably, the sample upon which said analysis is to be performed is blood. Examples of such well known assays include but are not limited to mass spectrometry, where the level of vitamin D or active metabolites thereof can be quantitatively measured. A sufficient amount is therefore an amount that achieves the desired blood vitamin D concentration. The desired concentration can be achieved after single administration or after repeated administrations of a dose of vitamin D or an active metabolite thereof. […]
# Thyroiditis = test: Case report Example 2: patient with thyroiditis treated with LDN and Vitamin D; settings: 5,000 units of Vitamin D per day, before naltrexone
# From the text: This antibody activity then can interfere with the ability to incorporate iodine into the thyroid molecule, thus interfering with thyroid cell function.
# [5] = Standard serum test of vitamin D level (Example 2)
# Protocol: The patient was receiving Synthroid as treatment for hypothyroidism, and they also presented with a rare form of macular degeneration requiring intra-ocular injections and interstitial cystitis. […] At the time they were not aware they had autoimmune thyroiditis.
# Their dosage for Nature Throid was 97.5 mg twice a day for their thyroid supplementation. Their vitamin D level was 45 ng/ml, T3 was 4.1 and T4 (thyroxine, which converts into T3 in peripheral tissues) was 0.84. Their thyroid has stabilized as shown by these values; the patient's levels are at optimal levels where the T3 is in the upper range.
# [6] = testosterone cream 4 mg per day, later measurements
compound,measurement,setting,value
"C[C@]12CC[C@H](O)CC1=CC[C@@H]1[C@@H]2CC[C@]2(C)C(=O)CC[C@@H]12 [DHEA, Dehydroepiandrosterone]",DHEA hormone level,[1]; DHEA increased to 10 mg,203
same,DHEA hormone level,[1]; last laboratory results,169
same,DHEA hormone level,[1]; later measurements,142
"O=C1CC[C@@]2(O)[C@H]3Cc4ccc(O)c5c4[C@@]2(CCN3CC2CC2)[C@H]1O5 [naltrexone, morphinan-6-one,17-(cyclopropylmethyl)-4,5-epoxy-3,14-dihydroxy-(5a)]",fibromyalgia symptoms,[2],resolved
CCN(CCO)CCCC(C)Nc1ccnc2cc(Cl)ccc12 (centres unmarked) [plaquenil],benefit on symptoms,[3],minimal benefit
C[C@]12CC[C@H]3[C@@H](CCC4=CC(=O)CC[C@@]43C)[C@@H]1CC[C@@H]2O [testosterone],Free testosterone,[1]; [6],1.3
same,total testosterone,[1]; [6],19
Vitamin D,Vitamin D levels (SpectraCell test),[4],47
same,effect in regards to interstitial cystitis,Thyroiditis,did not seem to have any significant effect
same,vitamin D 25 OH level,"[5]; 5,000 units of vitamin D daily, standard serum test, deficient level",39
same,vitamin D level,[5]; during LDN and Vitamin D treatment,45 ng/mL
